Assay results: patent US5776944A, “7-(4-aminomethyl-3-methyloxyiminopyrroplidin-1-yl)-1-cyclopropyl-6-flu oro-4-oxo-1,4-dihydro-1,8-naphthyridine-3-carboxylic acid and the process for the preparation thereof” (LG Chemical Ltd., priority 1994, dated 1998)
Where two headings read alike, the source gives them in different places.

How the values were obtained:
[1] = system: Micrococcus luteus 9341; test: In vitro antibacterial activity (MIC, agar medium dilution), Biological Example 4; assay type: cell-based; settings: 18 h; Micrococcus luteus 9341, Table 32, ratio of weight; read-out: Minimum Inhibitory Concentration: MIC
[2] = system: Staphylococcus aureus 77; test: as above; assay type: cell-based; settings: 18 h; Staphylococcus aureus 77, Table 32, ratio of weight; read-out: Minimum Inhibitory Concentration: MIC
[3] = system: Acinetobacter calcoaceticus 15473; test: as above; assay type: cell-based; settings: 18 h; Acinetobacter calcoaceticus 15473, Table 32, ratio of weight; read-out: Minimum Inhibitory Concentration: MIC
[4] = assay type: physicochemical
[5] = system: Staphylococcus aureus 6538p; test: In vitro antibacterial activity (MIC, agar medium dilution), Biological Example 4; assay type: cell-based; settings: 18 h, Table 32, ratio of weight without considering molecular weight, read-out: Minimum Inhibitory Concentration: MIC
[6] = system: Escherichia coli 851E; test: as above; assay type: cell-based; settings: 18 h, Table 32, ratio of weight, read-out: Minimum Inhibitory Concentration: MIC
[7] = system: Escherichia coli 3190Y; test: as above; assay type: cell-based; settings: 18 h, Table 32, ratio of weight, read-out: Minimum Inhibitory Concentration: MIC
[8] = system: Escherichia coli TEM9 2639E; test: as above; assay type: cell-based; settings: TEM92639E, 18 h, read-out: Minimum Inhibitory Concentration: MIC
[9] = system: Klebsiella aerogenes 1976E; test: as above; assay type: cell-based; settings: 18 h, Table 32, ratio of weight, read-out: Minimum Inhibitory Concentration: MIC
[10] = system: Escherichia coli TEM3 3455E; test: as above; assay type: cell-based; settings: TEM33455E, 18 h, read-out: Minimum Inhibitory Concentration: MIC, Escherichia coli TEM3 3455E, Table 32, ratio of weight
[11] = system: Proteus vulgaris 6059; test: as above; assay type: cell-based; settings: 18 h; Proteus vulgaris 6059, Table 32, ratio of weight; read-out: Minimum Inhibitory Concentration: MIC
[12] = system: Enterobacter cloacae 1194E; test: microbe, parasite or virus in culture; assay type: cell-based; settings: 18 h, read-out: Minimum Inhibitory Concentration: MIC
[13] = system: Salmonella thypimurium 14028; test: In vitro antibacterial activity (MIC, agar medium dilution), Biological Example 4; assay type: cell-based; settings: 18 h; Salmonella thypimurium 14028, Table 32, ratio of weight; read-out: Minimum Inhibitory Concentration: MIC
[14] = system: Staphylococcus epidermidis 887E; test: as above; assay type: cell-based; settings: 18 h, read-out: Minimum Inhibitory Concentration: MIC, Staphylococcus epidermidis 887E, Table 32, ratio of weight
[15] = system: Seratis marsecence 1826E; test: as above; assay type: cell-based; settings: 18 h, Table 32, ratio of weight, read-out: Minimum Inhibitory Concentration: MIC
Procedure: (§1) In order to determine the antibacterial activitiers of the E- and Z-isomner of the compound 180 which were separated in Example 203, and of 7- (4-aminomethyl-3-methyloxylminopyrrolidin-1-yl)-1-cyclopropyl-6-fluoro-4-oxo-1,4-dihydro-1,8-naphthyridine-3-carboxylic acid methanesulfonate prepared in Example 204, in vitro antibacterial activities of them were measured using agar medium dilution method. The results were as described in the following Tables 31 and 32.

[16] = Antibacterial activity of methanesulfonate and its hydrate; assay type: cell-based
[17] = system: Escherichia coli 10536; test: In vitro antibacterial activity (MIC, agar medium dilution), Biological Example 4; assay type: cell-based; settings: Escherichia coli, 10536, 18 h, read-out: Minimum Inhibitory Concentration: MIC, Escherichia coli 10536, Table 32, ratio of weight
[18] = system: Staphylococcus aureus giorgio; test: as above; assay type: cell-based; settings: 18 h, Table 32, ratio of weight, read-out: Minimum Inhibitory Concentration: MIC
[19] = physchem; settings: phosphate buffered solution
[20] = system: Enterobacter cloacae P99; test: microbe, parasite or virus in culture; assay type: cell-based; settings: P99, 18 h, read-out: Minimum Inhibitory Concentration: MIC
[21] = system: Staphylococcus aureus 241; test: In vitro antibacterial activity (MIC, agar medium dilution), Biological Example 4; assay type: cell-based; settings: Staphylococcus aureus, 241, 18 h, Staphylococcus aureus 241, Table 32, ratio of weight; read-out: Minimum Inhibitory Concentration: MIC
[22] = system: Escherichia coli TEM5 3739E; test: as above; assay type: cell-based; settings: TEM53739E, 18 h, read-out: Minimum Inhibitory Concentration: MIC
[23] = system: Citrobacter diversus 2046E; test: as above; assay type: cell-based; settings: Citrobacter koseri, 18 h, Table 32, ratio of weight, read-out: Minimum Inhibitory Concentration: MIC
[24] = system: Streptococcus faecalis 29212; test: as above; assay type: cell-based; settings: Enterococcus faecalis, 29212, 18 h, Streptococcus faecalis 29212, Table 32, ratio of weight; read-out: Minimum Inhibitory Concentration: MIC
[25] = system: Staphylococcus epidermidis 178; test: as above; assay type: cell-based; settings: 18 h; Staphylococcus epidermidis 178, Table 32, ratio of weight; read-out: Minimum Inhibitory Concentration: MIC
[26] = system: Bacillus subtilis 6633; test: as above; assay type: cell-based; settings: 18 h; Bacillus subtilis 6633, Table 32, ratio of weight; read-out: Minimum Inhibitory Concentration: MIC
[27] = system: Pseudomonas aeruginosa 1912E; test: as above; assay type: cell-based; settings: 18 h, Table 32, ratio of weight, read-out: Minimum Inhibitory Concentration: MIC
[28] = system: Pseudomonas aeruginosa 10145; test: as above; assay type: cell-based; settings: Pseudomonas aeruginosa, 10145, 18 h, Pseudomonas aeruginosa 10145, Table 32, ratio of weight; read-out: Minimum Inhibitory Concentration: MIC
[29] = system: test strains; test: In vitro antibacterial activity, overall finding, Biological Example 4; assay type: cell-based; settings: Tables 31 and 32
Procedure: as §1

[30] = system: Klebsiella aerogenes 1082E; test: In vitro antibacterial activity (MIC, agar medium dilution), Biological Example 4; assay type: cell-based; settings: 18 h, Table 32, ratio of weight, read-out: Minimum Inhibitory Concentration: MIC

Work on `CON=C1CN(c2nc3c(cc2F)c(=O)c(C(=O)O)cn3C2CC2)CC1CN.CS(=O)(=O)O` (centres unmarked) [Methanesulfonate, 7-(4-aminomethyl-3-methyloxyiminopyrrolidin-1-yl)-1-cyclopropyl-6-fluoro-4-oxo-1,4-dihydro-1,8-naphthyridine-3-carboxylic acid methanesulfonate] yielded an MIC [1] of 0.13 µg/mL, an MIC [2] of 0.031 µg/mL and an MIC [3] of 0.031 µg/mL. The “water solubility compared with other salts and free form” value was “superior to that of the tartarate, the sulfurate, and the p-toluenesulfonate as well as the free form”, the solubility [4] was “excellent solubility” and the MIC [5] was 0.016 µg/mL. For the same compound, the MIC [6] was 0.016 µg/mL, the MIC [7] was 8 ng/mL and the MIC [8] was 0.031 µg/mL. The MIC [9] was 0.13 µg/mL, the MIC [10] was 0.25 µg/mL and the MIC [11] was 0.25 µg/mL. It also gave an MIC [12] of 0.031 µg/mL, an MIC [13] of 0.031 µg/mL and an MIC [14] of 0.016 µg/mL. The MIC [15] was 0.13 µg/mL, the “antibacterial activity compared with the free form” value [16] was “the same potent antibacterial activity as the free form” and the MIC [17] was 8 ng/mL. For the same compound, the MIC [18] was 0.016 µg/mL, the solubility ([19]; pH 2, Water Solubility, phosphate buffered solution (pH 2)) was > 20 mg/mL and the solubility ([19]; pH 7, Water Solubility, phosphate buffered solution (pH 7)) was > 30 mg/mL. The MIC [20] was 0.016 µg/mL, the MIC [21] was 4 µg/mL and the MIC [22] was 0.13 µg/mL. The MIC [23] was 0.031 µg/mL, the MIC [24] was 0.13 µg/mL and the MIC [25] was 4 µg/mL. For the same compound, the MIC [26] was 0.016 µg/mL, the MIC [27] was 0.25 µg/mL and the MIC [28] was 0.5 µg/mL. The antibacterial activity [29] was “excellent antibacterial activity” and the MIC [30] was 0.031 µg/mL.
